# Experimental data from patent publication US9642869B2, “Boronic acid derivatives and therapeutic uses thereof” (Rempex Pharmaceuticals, Inc., priority 2013, dated 2017).
# Like-named read-outs stand apart in the source and are kept apart here.
# Assays:
# [1] = Intravenous pharmacokinetics; format: in vivo; conditions: rat, plasma, rats, IV infusion over 0.5 hours, read-out: Free Cl (converted)
# Procedure: Rats (n=3 per compound) were administered by a single infusion. IV doses were infused over 0.5 hours via an indwelling femoral vein cannula. Plasma (˜0.3 mL) samples were collected from each rat at designated time points up to 24 hours. Blood samples were centrifuged within 5 min of collection at 12000 g for 5 min to obtain plasma. The plasma samples were stored at −80° C. until analyzed. Data were analyzed using WinNonlin.
# KPC-2 KP1004 = test: Aztreonam potentiation (MPC@4); format: cell-based; conditions: minimum BLI concentration inhibiting growth with 4 μg/mL aztreonam
# SHV-5 ec308 [2] = test: Aztreonam potentiation (MPC@4); format: cell-based; conditions: minimum BLI concentration inhibiting growth with 4 μg/mL aztreonam
# KP1004 KPC-2 = test: Biapenem potentiation (MPC@1); format: cell-based; conditions: minimum BLI concentration inhibiting growth with 1 μg/mL biapenem
# Procedure: (§1) Biapenem was present in the test medium at 1 μg/mL. […] Table 3 summarizes the BLI potency of biapenem potentiation (MPC@1) for two strains overexpressing class A (KPC) and class D (OXA-48) carbapenemases. Biapenem MIC for each strain is also shown.
# OXA-48 KP1086 = test: Biapenem potentiation (MPC@1); format: cell-based; conditions: minimum BLI concentration inhibiting growth with 1 μg/mL biapenem
# Procedure: as §1
# ECL1002 [3] = test: Aztreonam potentiation (MPC@4); format: cell-based; conditions: minimum BLI concentration inhibiting growth with 4 μg/mL aztreonam
# SHV-5 ec308 [4] = format: cell-based; conditions: minimum BLI concentration inhibiting growth with tigemonam at 4 μg/mL
# CTX-M-15 KP1009 = format: cell-based
# CTX-M-14 KP1005 = format: cell-based
# ECL1002 [5] = format: cell-based; conditions: minimum BLI concentration inhibiting growth with tigemonam at 4 μg/mL
# SHV-12 = SHV-12 (Klebsiella pneumoniae, UniProt P0AD64, E235K/G234S/L31Q); test: Inhibition of nitrocefin cleavage by purified enzyme (Ki); format: biochemical; conditions: nitrocefin reporter substrate, 10 min preincubation; read-out: Ki (SHV-12, NCF)
# Procedure: Purified enzymes were mixed with various concentrations of inhibitors in reaction buffer and incubated for 10 min at room temperature. Nitrocefin was added and substrate cleavage profiles were recorded at 490 nm every 10 sec for 10 min.
# [6] = Serum stability of prodrugs (hydrolysis by human serum); format: in vitro ADME; conditions: 37° C.
# Procedure: (§2) Prodrug strategy is one of the ways to achieve or increase oral bioavailability of therapeutic drugs. Compound 13 was used as template a for various ester prodrugs. After a prodrug molecule is absorbed into systemic circulation, the prodrug molecule can be hydrolyzed in the blood to release the active form. The hydrolysis of several prodrugs by rat and human serum were evaluated.
# (§3) For all stability experiments the test compounds are treated with rat or human serum in Eppendorf tubes. One example of the testing procedures includes: 992 μl of serum was prewarmed at 37° C. for 2 minutes and then 8 μl of a compound (at 5 mg/ml, 125×) was added to get a final concentration of 40 μg/ml and immediately mixed. Alternatively, serum stability can be tested at 1 mg/ml. […] After vortexing for 30 seconds, the tube was centrifuged in a microcentrifuge for 10 minutes at 15K rpm. Next, 100 μl of the supernatant was combined with 600 μl of water and injected on LC-MS using 0.1% formic acid in water for mobile phase A and 0.1% formic acid in methanol for mobile phase B on an ACE 5 C18 2.1×100 mm column with a 10 μL injection. The flow rate and gradient are adjusted as needed to give the desired resolution and run time. The pH of the mobile phase is adjusted if needed to improve the chromatography.
# (§4) The time course of both the disappearance of a prodrug and the appearance of the active form of that prodrug is presented in Table 9a and Table 9b.
# [7] = Serum stability of prodrugs (hydrolysis by rat serum); format: in vitro ADME; conditions: 37° C.
# Procedure: as §2, §3, §4
# SHV-12, sequence (P0AD64 22-286 L31Q/G234S/E235K): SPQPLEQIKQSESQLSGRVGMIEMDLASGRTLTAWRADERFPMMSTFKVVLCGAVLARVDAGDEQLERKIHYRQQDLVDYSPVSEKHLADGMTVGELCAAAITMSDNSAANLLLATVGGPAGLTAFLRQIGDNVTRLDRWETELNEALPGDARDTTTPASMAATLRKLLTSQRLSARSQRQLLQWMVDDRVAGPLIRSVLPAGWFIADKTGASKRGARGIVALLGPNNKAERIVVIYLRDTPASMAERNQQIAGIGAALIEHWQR
SMILES,clearance ([1]; dose 20 mg/kg) [mL/min/kg],AZT MPC4 KPC-2 KP1004 (KPC-2 KP1004),AZT MPC4 SHV-5 ec308 (SHV-5 ec308 [2]),BPM MPC1 KP1004 KPC-2 (KP1004 KPC-2),BPM MPC1 OXA-48 KP1086 (OXA-48 KP1086),AZT MPC4 ECL1002 (ECL1002 [3]),TIG MPC4 SHV-5 ec308 (SHV-5 ec308 [4]),TIG MPC4 CTX-M-15 KP1009 (CTX-M-15 KP1009),TIG MPC4 CTX-M-14 KP1005 (CTX-M-14 KP1005),TIG MPC4 ECL1002 (ECL1002 [5]),Ki (SHV-12) [nM],clearance ([1]; dose 10 mg/kg) [mL/min/kg],Measured Initial Conc. in Serum (prodrug) [6] [µg/mL],Conc. at t = 2 hr (prodrug) [6],Conc. at t = 4 hr (prodrug) [6],Measured Initial Conc. in Serum (prodrug) [7] [µg/mL],Conc. at t = 2 hr (prodrug) [7] [µg/mL],Conc. at t = 4 hr (prodrug) [7]
"Nc1nnc(SCC(=O)N[C@H]2Cc3cccc(C(=O)O)c3OB2O)s1 [Compound 5, (R)-3-(2-(5-amino-1,3,4-thiadiazol-2-ylthio)acetamido)-2-hydroxy-3,4-dihydro-2H-benzo[e][1,2]oxaborinine-8-carboxylic acid]",28.5,Y (MIC of 1 μg/mL to 10 μg/mL),X (MIC of less than 1 μg/mL),X (MIC of less than 1 μg/mL),Y (MIC of 1 μg/mL to 10 μg/mL),Y (MIC of 1 μg/mL to 10 μg/mL),Y (MIC of 1 μg/mL to 10 μg/mL),X (key: X: MIC of less than 1 μg/mL; Y: MIC of 1 μg/mL to 10 μg/mL; Z: MIC of greater than 10 μg/mL),X (key: X: MIC of less than 1 μg/mL; Y: MIC of 1 μg/mL to 10 μg/mL; Z: MIC of greater than 10 μg/mL),X (MIC of less than 1 μg/mL),,,,,,,,
"[N-]=[N+]=NCC(=O)N[C@H]1Cc2cccc(C(=O)O)c2OB1O [Compound 8, (R)-3-(2-azidoacetamido)-2-hydroxy-3,4-dihydro-2H-benzo[e][1,2]oxaborinine-8-carboxylic acid]",,X (MIC of less than 1 μg/mL),X (MIC of less than 1 μg/mL),X (MIC of less than 1 μg/mL),Y (MIC of 1 μg/mL to 10 μg/mL),Y (MIC of 1 μg/mL to 10 μg/mL),Y (MIC of 1 μg/mL to 10 μg/mL),X (key: X: MIC of less than 1 μg/mL; Y: MIC of 1 μg/mL to 10 μg/mL; Z: MIC of greater than 10 μg/mL),X (key: X: MIC of less than 1 μg/mL; Y: MIC of 1 μg/mL to 10 μg/mL; Z: MIC of greater than 10 μg/mL),X (MIC of less than 1 μg/mL),< 1,35,,,,,,
"O=C(CSc1nncs1)N[C@H]1Cc2cccc(C(=O)O)c2OB1O [Compound 7, (R)-3-(2-(1,3,4-thiadiazol-2-ylthio)acetamido)-2-hydroxy-3,4-dihydro-2H-benzo[e][1,2]oxaborinine-8-carboxylic acid]",60.7,Y (MIC of 1 μg/mL to 10 μg/mL),X (MIC of less than 1 μg/mL),X (MIC of less than 1 μg/mL),Y (MIC of 1 μg/mL to 10 μg/mL),Y (MIC of 1 μg/mL to 10 μg/mL),X (MIC of less than 1 μg/mL),X (key: X: MIC of less than 1 μg/mL; Y: MIC of 1 μg/mL to 10 μg/mL; Z: MIC of greater than 10 μg/mL),X (key: X: MIC of less than 1 μg/mL; Y: MIC of 1 μg/mL to 10 μg/mL; Z: MIC of greater than 10 μg/mL),Y (MIC of 1 μg/mL to 10 μg/mL),< 1,,,,,,,
"CCC(CC)C(=O)OCOC(=O)c1cccc2c1OB(O)[C@@H](NC(=O)CSC)C2 [Compound 26, (R)-(2-ethylbutanoyloxy)methyl 2-hydroxy-3-(2-(methylthio)acetamido)-3,4-dihydro-2H-benzo[e][1,2]oxaborinine-8-carboxylate]",,,,,,,,,,,,,1520,920 µg/mL,790 µg/mL,1380,1150,1080 µg/mL
"CSCC(=O)N[C@H]1Cc2cccc(C(=O)OCOC(=O)C(C)(C)C)c2OB1O [Compound 23, (R)-pivaloyloxymethyl 2-hydroxy-3-(2-(methylthio)acetamido)-3,4-dihydro-2H-benzo[e][1,2]oxaborinine-8-carboxylate]",,,,,,,,,,,,,1860,1350 µg/mL,1000 µg/mL,1780,1440,1100 µg/mL
"CSCC(=O)N[C@H]1Cc2cccc(C(=O)OCOC(=O)OC(C)C)c2OB1O [Compound 24, (R)-(isopropoxycarbonyloxy)methyl 2-hydroxy-3-(2-(methylthio)acetamido)-3,4-dihydro-2H-benzo[e][1,2]oxaborinine-8-carboxylate]",,,,,,,,,,,,,1790,550 µg/mL,240 µg/mL,1660,910,330 µg/mL
"NC(=O)N[C@H]1Cc2cccc(C(=O)O)c2OB1O [Compound 6, (R)-2-hydroxy-3-ureido-3,4-dihydro-2H-benzo[e][1,2]oxaborinine-8-carboxylic acid]",,X (MIC of less than 1 μg/mL),Y (MIC of 1 μg/mL to 10 μg/mL),X (MIC of less than 1 μg/mL),Y (MIC of 1 μg/mL to 10 μg/mL),Z (MIC of greater than 10 μg/mL),Z (MIC of greater than 10 μg/mL),Y (key: X: MIC of less than 1 μg/mL; Y: MIC of 1 μg/mL to 10 μg/mL; Z: MIC of greater than 10 μg/mL),Z (key: X: MIC of less than 1 μg/mL; Y: MIC of 1 μg/mL to 10 μg/mL; Z: MIC of greater than 10 μg/mL),Y (MIC of 1 μg/mL to 10 μg/mL),1 to 10,,,,,,,
"O=C(N[C@H]1Cc2cccc(C(=O)O)c2OB1O)c1cncc(F)c1 [Compound 14, (R)-3-(5-fluoronicotinamido)-2-hydroxy-3,4-dihydro-2H-benzo[e][1,2]oxaborinine-8-carboxylic acid]",,Y (MIC of 1 μg/mL to 10 μg/mL),Y (MIC of 1 μg/mL to 10 μg/mL),X (MIC of less than 1 μg/mL),Y (MIC of 1 μg/mL to 10 μg/mL),Y (MIC of 1 μg/mL to 10 μg/mL),Y (MIC of 1 μg/mL to 10 μg/mL),Y (key: X: MIC of less than 1 μg/mL; Y: MIC of 1 μg/mL to 10 μg/mL; Z: MIC of greater than 10 μg/mL),Y (key: X: MIC of less than 1 μg/mL; Y: MIC of 1 μg/mL to 10 μg/mL; Z: MIC of greater than 10 μg/mL),Y (MIC of 1 μg/mL to 10 μg/mL),< 1,,,,,,,
"CCCC(=O)OCOC(=O)c1cccc2c1OB(O)[C@@H](NC(=O)CSC)C2 [Compound 25, (R)-butyryloxymethyl 2-hydroxy-3-(2-(methylthio)acetamido)-3,4-dihydro-2H-benzo[e][1,2]oxaborinine-8-carboxylate]",,,,,,,,,,,,,27.3,NDT,NDT,31.2,1.94,NDT
